Measured values taken from patent US20230330069A1, “USE OF THIAZOLIDES AGAINST CORONAVIRUSES” (Romark Laboratories, L.C., priority 2020, published 2023).
Like-named read-outs stand apart in the source and are kept apart here.

Key:
[1] = Example 1 trial: adverse events / tolerability; type: in vivo, human; conditions: 600 mg orally twice daily
SARS-CoV-2 = type: in vivo
SARS-CoV-2 RNA = type: in vivo; conditions: for Mean (SD) Viral Load Change from Baseline / Percent Positive for SARS-CoV-2 RNA: nasopharyngeal swabs; for Percent Positive for SARS-CoV-2 RNA: 177 samples
[2] = in vivo
Description: (§1) After randomization, eligible subjects underwent a physical examination, collection of nasopharyngeal swabs, and blood and urine samples for laboratory safety testing and assessment of SARS-CoV-2 antibody titers. Study drug was dispensed, and subjects were followed for 28 days. Subjects were instructed to complete electronic diaries recording oral temperature twice daily and symptom severity once daily in the evening for 21 days and were contacted daily by telephone by site staff on study days 2-7 and 28 to verify compliance and screen for progression to severe illness or other complications. Repeat nasopharyngeal swabs were collected on study days 4 and 10. Follow up blood and urine samples for laboratory safety testing and assessment of SARS-CoV-2 antibody titers were collected on study day 22. Subjects were allowed to use acetaminophen and/or dextromethorphan for symptom relief along with standard-of-care rescue medications. Adverse events were collected continuously throughout the study and monitored until the events resolved.
(§2) Efficacy analyses were based on a modified intention to treat (mITT) population of subjects testing positive for SARS-CoV-2 at baseline.

COVID-19 = conditions: 600 mg twice daily for seven days; hospitalized moderate to severe COVID-19; cited from earlier work
[3] = Example 5 trial: safety analyses (adverse events); conditions: one severe COVID-19, one aspiration (SARS-CoV-2 negative); not considered related to study medication
Description: as §1, §2

[4] = 133 subjects with moderate illness at baseline
[5] = all SARS-CoV-2-positive subjects (mITT)
[6] = all SARS-CoV-2-positive subjects (mITT), 600 mg twice daily for 5 days
[7] = all SARS-CoV-2-positive subjects (mITT), listed as NTZ
[8] = all SARS-CoV-2-positive subjects (mITT), listed as nitazoxanide
[9] = subgroup 'May Be' or 'At Increased Risk' for severe COVID-19 per CDC (protocol-defined stratification factor)
[10] = subgroup At High Risk of progressing to severe COVID-19 and/or hospitalization (per EUA documents for monoclonal antibodies)
[11] = subgroup At Increased Risk for severe COVID-19 per CDC

CC(=O)Oc1ccccc1C(=O)Nc1ncc([N+](=O)[O-])s1 [Nitazoxanide, 2-(acetolyloxy)-N-(5-nitro-2-thiazolyl) benzamide]
adverse event: mild chromaturia, subjects ([1]; placebo 1.0%): 14.6% | adverse event: diarrhea, subjects ([1]; placebo 4.9%): 6.6% | subjects progressing to severe illness (SARS-CoV-2; 68 subjects with moderate illness at baseline in nitazoxanide arm, placebo two of 65): None and none | TSR vs placebo (SARS-CoV-2; [4]): longer | time to return to usual health vs placebo (SARS-CoV-2; [4]): longer | relative reduction in rate of hospitalization, emergency room visit or death vs placebo (SARS-CoV-2; [5]): 82% | relative reduction of progression to severe COVID-19 vs placebo (SARS-CoV-2; [5]): 85% | subjects experiencing hospitalization, emergency room visit or death (%) (SARS-CoV-2; [5]): 0.5% | subjects experiencing hospitalization, emergency room visit or death (n/N) (SARS-CoV-2; [5]): 1/184 | subjects progressing to severe COVID-19 (%) (SARS-CoV-2; [6]): 0.5% | subjects progressing to severe COVID-19 (n/N) (SARS-CoV-2; [6]): 1/184 | subjects progressing to severe COVID-19 (%) (SARS-CoV-2; all SARS-CoV-2-positive subjects (mITT), 600 mg twice daily for 5 days, listed as NTZ): (0.5%) | subjects progressing to severe COVID-19 (%) (SARS-CoV-2; all SARS-CoV-2-positive subjects (mITT), 600 mg twice daily for 5 days, listed as nitazoxanide): 0.5% | relative reduction in rate of hospitalization, emergency room visit or death vs placebo (SARS-CoV-2; [7]): 82% | relative reduction of progression to severe COVID-19 vs placebo (SARS-CoV-2; [7]): 85% | subjects experiencing hospitalization, emergency room visit or death (%) (SARS-CoV-2; [7]): (0.5%) | relative reduction in rate of hospitalization, emergency room visit or death vs placebo (SARS-CoV-2; [8]): 82% | relative reduction of progression to severe COVID-19 vs placebo (SARS-CoV-2; [8]): 85% | Median (IQR) time from first dose to sustained response (TSR) (SARS-CoV-2; all mITT subjects, placebo 12.35 (7.18->21), p=0.88): 13.28 (6.26->21) days | relative reduction in rate of hospitalization, emergency room visit or death vs placebo (SARS-CoV-2; [9]): 81% | relative reduction of progression to severe COVID-19 vs placebo (SARS-CoV-2; [9]): 84% | subjects experiencing hospitalization, emergency room visit or death (%) (SARS-CoV-2; [9]): (0.9%) | subjects experiencing hospitalization, emergency room visit or death (n/N) (SARS-CoV-2; [9]): 1/112 | subjects progressing to severe COVID-19 (%) (SARS-CoV-2; [9]): (0.9%) | subjects progressing to severe COVID-19 (n/N) (SARS-CoV-2; [9]): 1/112 | relative reduction in rate of hospitalization, emergency room visit or death vs placebo (SARS-CoV-2; [10]): 77% | relative reduction of progression to severe COVID-19 vs placebo (SARS-CoV-2; [10]): 81% | subjects experiencing hospitalization, emergency room visit or death (%) (SARS-CoV-2; [10]): (1.7%) | subjects experiencing hospitalization, emergency room visit or death (n/N) (SARS-CoV-2; [10]): 1/60 | subjects progressing to severe COVID-19 (%) (SARS-CoV-2; [10]): (1.7%) | subjects progressing to severe COVID-19 (n/N) (SARS-CoV-2; [10]): 1/60 | relative reduction in rate of hospitalization, emergency room visit or death vs placebo (SARS-CoV-2; [11]): 81% | relative reduction of progression to severe COVID-19 vs placebo (SARS-CoV-2; [11]): 83% | subjects experiencing hospitalization, emergency room visit or death (%) (SARS-CoV-2; [11]): (1.0%) | subjects experiencing hospitalization, emergency room visit or death (n/N) (SARS-CoV-2; [11]): 1/104 | subjects progressing to severe COVID-19 (%) (SARS-CoV-2; [11]): (1.0%) | subjects progressing to severe COVID-19 (n/N) (SARS-CoV-2; [11]): 1/104 | median TSR (SARS-CoV-2; subjects with mild illness at baseline, n=116, placebo 13.4): 10.3 days | reduction of median time to return to usual health vs placebo (SARS-CoV-2; subjects with mild illness at baseline, p=0.0075): 5.2 days | reduction of median TSR (time to sustained clinical recovery) vs placebo (SARS-CoV-2; subjects with mild illness at baseline, p=0.0932): 3.1 days | median time from first dose until subjects reported returning to usual health (SARS-CoV-2; subjects with mild illness at baseline, placebo 18.4): 13.2 days | Mean (SD) Viral Load Change from Baseline (SARS-CoV-2 RNA; Day 4): −0.70 (1.573) log10 copies/mL | Percent Positive for SARS-CoV-2 RNA (SARS-CoV-2 RNA; Day 4): 94% | Mean (SD) Viral Load Change from Baseline (SARS-CoV-2 RNA; Day 10): −2.49 (1.582) log10 copies/mL | Percent Positive for SARS-CoV-2 RNA (SARS-CoV-2 RNA; Day 10): 73% | Viral Load Day 4 (SARS-CoV-2 RNA; single NTZ-treated subject who progressed to severe COVID-19, Day 1 value 7.39): 7.39/4.79 log10 RNA copies/mL | subjects reporting at least one adverse event (%) ([2]; human): 13.3% | subjects reporting diarrhea (%) ([2]; human): 3.4% | subjects reporting at least one adverse event (number) [2]: Sixty-three | subjects reporting serious adverse events [2]: Two | subjects who discontinued study medication due to adverse events [2]: Two | safety and tolerability ([2]; po): safe and well tolerated | duration of supplemental oxygen vs placebo (COVID-19): reductions | rate of mechanical ventilation vs placebo (COVID-19): reductions | rate of mortality vs placebo (COVID-19): reductions | time to hospital discharge vs placebo (COVID-19): reductions | subjects who died during the study [3]: Two
